Tested on: New Zealand White Rabbits
Assay: Ocular irritancy potential and systemic toxicity, daily repeated ocular instillation
Assay type: in vivo
Method: The pharmaceutical compositions of the present invention were tested in New Zealand White Rabbits, for ocular irritancy potential and systemic toxicity. The pharmaceutical composition of the present invention and polyethylene glycol hydroxystearate (the excipient) both were tested. The test involved daily repeated ocular instillation for at least 14 days.

CC(C)OC(=O)CCC/C=C\C[C@@H]1[C@@H](CC[C@@H](O)CCc2ccccc2)[C@H](O)C[C@@H]1O [latanoprost, isopropyl-(Z)-7[(1R,2R,3R,5S)3,5-dihydroxy-2-[(3R)-3-hydroxy-5-phenylpentyl]cyclopentyl]-5-heptenoate]
gross or microscopical pathological lesion (at least 14 days ocular instillation): did not result into any gross or microscopical pathological lesion | alterations in body weight, % body weight gain, terminal body weight, absolute and relative organ weights, differential cell count of bone marrow, biochemical and hematological parameters (at least 14 days ocular instillation, compared to the control group): no statistically significant alterations | clinical sign or irritation in the eyes (daily repeated ocular instillation for at least 14 days, Solutol HS 15 approximately 47 times HRD, latanoprost approximately 48 times HRD): no clinical sign or irritation in the eyes

— US9539262B2, “Ophthalmic composition comprising a prostaglandin” (SUN PHARMA ADVANCED RESEARCH COMPANY, LTD., priority 2007, dated 2017)
